The values below are quoted from earlier work in EP3888461A1, “NON-AQUEOUS DISPERSIONS COMPRISING INHIBITORS OF HYDROXYPHENYLPYRUVATE-DIOXYGENASE AND CITRIC ACID” (Bayer AG, priority 2020, dated 2021).

For this data set the following is noted: commercially available brands of surfactants of structure (II).

Take Tween® 21: the “Log P” value is recorded as 2.71.
As to “Polyoxyethylene (16) sorbitan monolaurate [Tween® 24]”, the “Log P” value is listed as 0.26.
With Tween® 40, the “Log P” value is 1.47.
As to Tween® 80, the “Log P” value is 1.99.
For Tween® 20, the “Log P” value is given as -0.55.
With Tween® 60, the “Log P” value was 2.48.
